From publication PMC2784635 (Bioorganic & medicinal chemistry, 2008)

Test system: strobilurin resistant strain of Plasmopara viticola
Test: cross-resistance test on small vine plants in the glasshouse

COC(=O)CNC(=O)/C=C\C/C=C\NC(=O)/C=C(C)/C=C/[C@H](C)[C@H](OC)[C@H](C)[C@H](/C=C/c1ccccc1)OC [Compound 8, crocacin A]
cross-resistance to strobilurin resistant Plasmopara viticola: little or no cross-resistance
